Conditions: Liquid, Pulse Transmission

O [water]
Conditions | speed of sound [m/s]
267.88 K, 349500 kPa | 1996.1
267.89 K, 199900 kPa | 1745.2
273.01 K, 49300 kPa | 1483.9
273.02 K, 200500 kPa | 1762.6
273.03 K, 50300 kPa | 1485.7
273.05 K, 100 kPa | 1399.3
273.07 K, 49200 kPa | 1484
273.07 K, 499800 kPa | 2214.4
273.08 K, 200700 kPa | 1763.5
273.08 K, 300600 kPa | 1930.8
273.08 K, 399700 kPa | 2080.1
273.09 K, 100 kPa | 1399.8
273.09 K, 100000 kPa | 1578.3
273.09 K, 150200 kPa | 1671.7
273.09 K, 150400 kPa | 1671.6
273.09 K, 349400 kPa | 2006.9
273.1 K, 100 kPa | 1398.7
273.1 K, 100500 kPa | 1579.6
273.1 K, 250700 kPa | 1849
273.1 K, 350400 kPa | 2009
273.1 K, 450500 kPa | 2150.3
273.1 K, 500400 kPa | 2215.2
273.1 K, 550500 kPa | 2281.3
273.1 K, 602100 kPa | 2345.3
273.11 K, 200300 kPa | 1762.7
273.11 K, 250300 kPa | 1848.4
273.11 K, 250600 kPa | 1848.7
273.11 K, 299900 kPa | 1929.5
273.11 K, 550200 kPa | 2281.4
273.12 K, 300000 kPa | 1929.7
273.12 K, 399600 kPa | 2079.5
273.12 K, 401000 kPa | 2081.2
273.12 K, 449300 kPa | 2149.5
273.12 K, 450200 kPa | 2149.8
273.12 K, 550300 kPa | 2276.8
273.12 K, 599500 kPa | 2342
273.13 K, 150200 kPa | 1672.1
273.13 K, 349700 kPa | 2007
273.13 K, 499900 kPa | 2214.6
273.18 K, 99800 kPa | 1577.5
278.05 K, 100 kPa | 1425.1
278.05 K, 500300 kPa | 2220.9
278.07 K, 349300 kPa | 2013.6
278.08 K, 200300 kPa | 1775.7
278.08 K, 349600 kPa | 2014.7
278.08 K, 400000 kPa | 2086.4
278.08 K, 450900 kPa | 2156.9
278.08 K, 602100 kPa | 2346.8
278.09 K, 49200 kPa | 1507.3
278.09 K, 400000 kPa | 2087.5
278.09 K, 449700 kPa | 2155.5
278.09 K, 500500 kPa | 2221.3
278.09 K, 550800 kPa | 2286.8
278.09 K, 700200 kPa | 2439.8
278.1 K, 299900 kPa | 1938.9
278.1 K, 400500 kPa | 2089.8
278.1 K, 500400 kPa | 2223.3
278.11 K, 561500 kPa | 2297.2
278.11 K, 640200 kPa | 2390.8
278.12 K, 200800 kPa | 1777.1
278.12 K, 250200 kPa | 1858.4
278.12 K, 299900 kPa | 1939.6
278.12 K, 450800 kPa | 2157.8
278.12 K, 600700 kPa | 2347.6
278.12 K, 650000 kPa | 2402.2
278.13 K, 48300 kPa | 1506
278.13 K, 150100 kPa | 1688.3
278.13 K, 200100 kPa | 1776.7
278.13 K, 250100 kPa | 1859.7
278.13 K, 250600 kPa | 1859.7
278.13 K, 550600 kPa | 2284.7
278.14 K, 150100 kPa | 1689.2
278.15 K, 100 kPa | 1424.8
278.15 K, 99600 kPa | 1597.6
278.16 K, 99900 kPa | 1599.9
278.16 K, 300500 kPa | 1940
278.17 K, 349800 kPa | 2017.6
278.17 K, 599300 kPa | 2344.6
278.17 K, 651900 kPa | 2402.7
278.17 K, 701300 kPa | 2451
278.19 K, 109200 kPa | 1614.9
278.19 K, 159900 kPa | 1705.3
278.19 K, 700600 kPa | 2446.5
278.24 K, 100 kPa | 1425.6
288 K, 450300 kPa | 2162.1
288.07 K, 300700 kPa | 1953.9
288.07 K, 600900 kPa | 2346.8
288.08 K, 100 kPa | 1463.4
288.08 K, 50800 kPa | 1549.6
288.08 K, 149800 kPa | 1717.5
288.08 K, 250500 kPa | 1878.9
288.08 K, 350800 kPa | 2026.4
288.08 K, 400300 kPa | 2094.6
288.08 K, 699800 kPa | 2453.6
288.09 K, 50900 kPa | 1549.8
288.09 K, 110900 kPa | 1650.2
288.09 K, 160100 kPa | 1733.4
288.09 K, 349600 kPa | 2026.1
288.09 K, 599500 kPa | 2345.8
288.1 K, 499500 kPa | 2226.5
288.1 K, 499700 kPa | 2225.7
288.11 K, 100 kPa | 1461.4
288.11 K, 200800 kPa | 1799.7
288.11 K, 299800 kPa | 1952.9
288.11 K, 599900 kPa | 2344.8
288.11 K, 700800 kPa | 2455.2
288.12 K, 200300 kPa | 1800.1
288.12 K, 250000 kPa | 1878.5
288.12 K, 399800 kPa | 2094.8
288.13 K, 100 kPa | 1462.4
